Assay results as given in ChEMBL document CHEMBL3822445, “Histone demethylating agents as potential S-adenosyl-l-methionine-competitors” (Medchemcomm, 2016).
The source made the active and inactive calls. No cut-off for these calls is given here.

Key:
[1] = Antiproliferative activity against human Ovarian cancer LA#83 cells assessed as cell survival at 20 uM after 72 hrs by MTT assay relative to control; assay type: functional; details: read-out: Survival
[2] = Antiproliferative activity against human Ovarian cancer DC#83 cells assessed as cell survival at 20 uM after 72 hrs by MTT assay relative to control; assay type: functional; details: read-out: Survival
[3] = Antiproliferative activity against human Ovarian cancer LA#110 cells assessed as cell survival at 20 uM after 72 hrs by MTT assay relative to control; assay type: functional; details: read-out: Survival
[4] = Antiproliferative activity against human Ovarian cancer DC#110 cells assessed as cell survival at 20 uM after 72 hrs by MTT assay relative to control; assay type: functional; details: read-out: Survival
MCF7 [5] = test: Inhibition of DNA methylation in human MCF7 cells assessed as decrease in methylation of RARbeta DNA by qPCR method; assay type: cell-based
MCF7 [6] = test: Inhibition of DNA methylation in human MCF7 cells assessed as reduction in H3K27me3 levels at 15 uM after 48 hrs by Western blot analysis; assay type: cell-based
MCF7 [7] = test: Inhibition of DNA methylation in human MCF7 cells assessed as reduction in H3K9me3 levels at 15 uM after 48 hrs by Western blot analysis; assay type: cell-based
MCF7 [8] = test: Antiproliferative activity against human MCF7 cells after 48 to 72 hrs by MTT assay; assay type: functional, cell-based
[9] = Antiproliferative activity against human H460 cells after 48 to 72 hrs by MTT assay; assay type: functional, cell-based; details: NCI-H460
MSTO-211H = test: Antiproliferative activity against human MSTO-211H cells after 48 to 72 hrs by MTT assay; assay type: functional, cell-based
MCF7 [10] = test: Cell cycle arrest in human MCF7 cells assessed as accumulation at G2/M phase at 15 uM after 72 hrs by flow cytometry relative to control; assay type: functional
MCF7 [11] = test: Induction of apoptosis in human MCF7 cells assessed as viable cells at 15 uM after 48 hrs by AnnexinV-FITC staining based flow cytometry (reference value: 74.4 +/- 9.1 %); assay type: functional; details: MCF7, 48 h, read-out: Activity
MCF7 [12] = test: Induction of apoptosis in human MCF7 cells assessed as viable cells at 15 uM after 72 hrs by AnnexinV-FITC staining based flow cytometry (reference value: 60.5 +/- 6 %); assay type: functional; details: MCF7, 72 h, read-out: Activity
MCF7 [13] = test: Induction of apoptosis in human MCF7 cells assessed as early apoptotic cells at 15 uM after 48 hrs by AnnexinV-FITC staining based flow cytometry (reference value: 7.8 +/- 5.3 %); assay type: functional
MCF7 [14] = test: Induction of apoptosis in human MCF7 cells assessed as early apoptotic cells at 15 uM after 72 hrs by AnnexinV-FITC staining based flow cytometry (reference value: 20.1 +/- 7.3 %); assay type: functional
MCF7 [15] = test: Induction of apoptosis in human MCF7 cells assessed as late apoptotic cells at 15 uM after 48 hrs by AnnexinV-FITC staining based flow cytometry (reference value: 7.6 +/- 5.9 %); assay type: functional
MCF7 [16] = test: Induction of apoptosis in human MCF7 cells assessed as late apoptotic cells at 15 uM after 72 hrs by AnnexinV-FITC staining based flow cytometry (reference value: 11.8 +/- 2.2 %); assay type: functional
MCF7 [17] = test: Induction of apoptosis in human MCF7 cells assessed as necrotic cells at 15 uM after 48 hrs by AnnexinV-FITC staining based flow cytometry (reference value: 10.2 +/- 1.9 %); assay type: functional
MCF7 [18] = test: Induction of apoptosis in human MCF7 cells assessed as necrotic cells at 15 uM after 72 hrs by AnnexinV-FITC staining based flow cytometry (reference value: 7.6 +/- 1 %); assay type: functional
[19] = target: T1, Histone-lysine N-methyltransferase EHMT2 (Homo sapiens) (UniProt Q96KQ7); test: Inhibition of G9a in human MCF7 nuclear extracts assessed as reduction in H3K9 levels at 15 uM after 48 hrs; assay type: cell-based
T1 sequence (whole entry): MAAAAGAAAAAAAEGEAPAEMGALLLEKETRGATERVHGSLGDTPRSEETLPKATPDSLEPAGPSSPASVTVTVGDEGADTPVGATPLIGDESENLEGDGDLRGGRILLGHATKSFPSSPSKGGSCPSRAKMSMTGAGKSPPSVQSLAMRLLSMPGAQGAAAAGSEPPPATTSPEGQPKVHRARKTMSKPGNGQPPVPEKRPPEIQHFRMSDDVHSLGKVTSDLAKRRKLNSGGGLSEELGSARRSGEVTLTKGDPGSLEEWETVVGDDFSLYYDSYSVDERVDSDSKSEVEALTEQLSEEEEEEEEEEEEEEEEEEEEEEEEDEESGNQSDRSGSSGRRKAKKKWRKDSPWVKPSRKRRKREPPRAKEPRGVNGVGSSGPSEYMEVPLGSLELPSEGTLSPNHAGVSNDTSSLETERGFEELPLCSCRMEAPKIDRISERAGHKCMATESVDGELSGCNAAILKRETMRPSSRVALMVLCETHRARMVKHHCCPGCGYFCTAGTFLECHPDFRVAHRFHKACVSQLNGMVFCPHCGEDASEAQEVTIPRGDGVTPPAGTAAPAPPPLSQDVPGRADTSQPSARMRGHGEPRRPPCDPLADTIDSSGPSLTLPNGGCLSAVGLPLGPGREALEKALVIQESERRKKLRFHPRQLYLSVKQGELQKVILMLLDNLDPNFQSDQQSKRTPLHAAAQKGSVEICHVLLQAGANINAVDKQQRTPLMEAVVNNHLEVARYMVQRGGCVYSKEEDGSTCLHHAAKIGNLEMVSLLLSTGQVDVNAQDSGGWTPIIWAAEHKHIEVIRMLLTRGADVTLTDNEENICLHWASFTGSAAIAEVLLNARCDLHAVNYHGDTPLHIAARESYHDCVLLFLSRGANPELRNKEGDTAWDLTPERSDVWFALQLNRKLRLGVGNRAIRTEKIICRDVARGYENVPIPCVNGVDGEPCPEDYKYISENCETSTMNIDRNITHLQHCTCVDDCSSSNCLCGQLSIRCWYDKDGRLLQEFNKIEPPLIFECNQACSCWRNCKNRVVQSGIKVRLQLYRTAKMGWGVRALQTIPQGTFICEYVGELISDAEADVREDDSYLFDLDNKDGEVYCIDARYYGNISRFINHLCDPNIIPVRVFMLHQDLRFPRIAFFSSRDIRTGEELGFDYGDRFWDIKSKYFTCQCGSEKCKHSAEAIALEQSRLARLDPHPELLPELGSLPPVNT

[20] = target: T1, Histone-lysine N-methyltransferase EHMT2 (Homo sapiens); test: Inhibition of G9a in human MCF7 nuclear extracts assessed as reduction in H3K27 levels at 15 uM after 48 hrs; assay type: cell-based
MCF7 [21] = test: Inhibition of DNA methylation in human MCF7 cells assessed as decrease in 5-methylcytosine level by ELISA; assay type: cell-based
MCF7 [22] = test: Cell cycle arrest in human MCF7 cells assessed as accumulation at G0/G1 phase at 15 uM after 24 hrs by flow cytometry relative to control; assay type: functional

Row | Compound | viability at 20 µM [1] [%] | viability at 20 µM [2] [%] | viability at 20 µM [3] [%] | viability at 20 µM [4] [%] | inhibition (MCF7 [5]) | inhibition (MCF7 [6]) | inhibition (MCF7 [7]) | IC50 (MCF7 [8]) [µM] | IC50 [9] [µM] | IC50 (MSTO-211H) [µM] | viability at 15 µM (MCF7 [11]) [%] | viability at 15 µM (MCF7 [12]) [%] | Activity (MCF7 [13]) [%] | Activity (MCF7 [14]) [%] | Activity (MCF7 [15]) [%] | Activity (MCF7 [16]) [%] | Activity (MCF7 [17]) [%] | Activity (MCF7 [18]) [%] | inhibition [19] | inhibition [20] | further results
1 | CN1C(=O)[C@@]23C[C@]4([C@]56C[C@@]78SS[C@@](CO)(C(=O)N7[C@H]5Nc5ccccc56)N(C)C8=O)c5ccccc5N[C@@H]4N2C(=O)[C@]1(CO)SS3 [CHAETOCIN] | -3.25 | 67.8 | -2.63 | -4.22 | Active | – | – | – | – | – | – | – | – | – | – | – | – | – | – | – | –
2 | Cc1nc(Nc2ncc(C(=O)Nc3c(C)cccc3Cl)s2)cc(N2CCN(CCO)CC2)n1 [DASATINIB] | 38.3 | 73.1 | 20.5 | 58.7 | – | – | – | – | – | – | – | – | – | – | – | – | – | – | – | – | –
3 | CCN(CC)CCNC(=O)c1c(C)[nH]c(/C=C2\C(=O)Nc3ccc(F)cc32)c1C [SUNITINIB] | 9.8 | 73.7 | 2.6 | 54.2 | – | – | – | – | – | – | – | – | – | – | – | – | – | – | – | – | –
4 | Cc1ccc(-c2cn3c(n2)sc2ccccc23)cc1 | 70.2 | 90.3 | 77.1 | 80.1 | inactive | inactive | inactive | 30.4 | > 20 | > 20 | 61.4 | 45.2 | 18.7 | 29 | 11.8 | 21 | 8.1 | 4.8 | Active | inactive | Activity (MCF7 [10]): Active; inhibition (MCF7 [21]): inactive
5 | N[C@@H]1C[C@H]1c1ccccc1.N[C@H]1C[C@@H]1c1ccccc1 [TRANYLCYPROMINE] | 77.5 | 102 | 60.6 | 93.6 | – | – | – | – | – | – | – | – | – | – | – | – | – | – | – | – | –
6 | CN1CCN(C(=O)[C@H]2Cc3c([nH]c4ccccc34)[C@@H]3N(C)c4ccccc4C(=O)N23)CC1 | 77.3 | 84.2 | 56.7 | 87.7 | Active | 30% | 70% | 34.8 | 9.05 | 6.6 | 64.6 | 54.7 | 13.6 | 23.3 | 12.2 | 15.8 | 9.6 | 6.2 | Active | Active | Activity (MCF7 [10]): Active; inhibition (MCF7 [21]): Active
7 | CCCCN1C(=O)[C@@H]2Cc3c(n(CO)c4ccccc34)CN2C1=O | 91.8 | 96 | 71.8 | 93.8 | Active | 40% | 50% | 38.7 | > 20 | > 20 | 69.4 | 58.6 | 13.1 | 20.6 | 13.5 | 13.7 | 4.1 | 7.1 | Active | Active | Activity (MCF7 [22]): 3%; inhibition (MCF7 [21]): Active
8 | C#CCN(C)Cc1ccccc1 [PARGYLINE] | 77.7 | 96.7 | 85 | 59.1 | – | – | – | – | – | – | – | – | – | – | – | – | – | – | – | – | –
9 | CCCCN1C(=O)[C@H]2Cc3c([nH]c4ccccc34)CN2C1=O | 64.7 | 91.2 | 78 | 86.4 | Active | 60% | 50% | 32.3 | > 20 | > 20 | 70.4 | 61.2 | 12.2 | 19.5 | 11 | 12.1 | 6.4 | 7.2 | Active | inactive | Activity (MCF7 [22]): 3%; inhibition (MCF7 [21]): Active
10 | C#Cc1cccc(Nc2ncnc3cc(OCCOC)c(OCCOC)cc23)c1 [ERLOTINIB] | 24.7 | 94.5 | 27.7 | 75.3 | – | – | – | – | – | – | – | – | – | – | – | – | – | – | – | – | –
